Experimental data from patent US9301923B2, “Lipids, lipid compositions, and methods of using them” (NOVARTIS AG, priority 2009, dated 2016).

How the values were obtained:
[1] = system: PLK-1 mRNA in HepG2 tumors; test: HepG2 tumor study, PLK-1 mRNA KD in tumor tissue; type: in vivo, human; conditions: Mus musculus, HepG2, iv, 24 h, HepG2 tumor in nude mice, 3 × 3 mg/kg siRNA iv, tumors harvested 24 hrs after the last dose; read-out: PLK1 % inhibition
Description: (§1) Formulated siRNAs are made up of double stranded siRNA sequences specific to a target mRNA sequence, and are in the form of lipid nucleotid particles (LNPs) containing cationic lipids, stealth lipids and neutral lipids, as provided in the Examples below. The siRNA construct for use in targeting the liver is specific to Factor VII. The siRNA construct for use in targeting tumors is specific to PLK1-424, which is published by Judge et al., See, J Clin Invest. 2009 March; 119(3):661-73; doi: 10.1172/JCI37515). • 1. FVII siRNA duplex sequence
HepG2 tumors are established in female nude mice by sc injection of 5×10^6 cells in 100 ul PBS into the left flank. Mice are randomized into treatment groups 10-14 days after seeding as tumors reached an average size of 150 mm^3. siRNA formulated LNP formulations are administered at 3×3 mg/kg dose levels intravenously via the lateral tail vein calculated on a mg siRNAs/kg basis according to individual animal weights (10 ml/kg injection volume). Mice are euthanized by CO2 inhalation at various time points and the tumors are harvested 24 hrs after the last dose for mRNA quantitation. Lipids with a wide range of pKa (5.3-6.6) are used in the LNP formulations. Tumors are measured in 2 dimensions (width×length) to assess tumor growth using digital calipers. Tumor volume is calculated using the equation [a×b×b/2], where a=largest diameter and b=smallest diameter.
About 30-50 mg tumor tissue is homogenized in tissue lysis buffer in a Qiagen homogenizer followed by centrifugation to clarify lysates. Total RNA is isolated using RNeasy isolation kit (catalog number 74106) according to the manufacture's protocol. PLK-1 mRNA is analyzed by quantitative PCR and normalized to human GAPDH. Applied Biosystems human PLK-1 gene expression assay Hs00983229_m1 and human GAPDH endogenous control cat number 4326317E are used for mRNA detection.
The pKa in all tables refers to the pKa of the cationic lipid. Where multiple doses are indicated (e.g., 3×5), the first number indicates the number of doses given and the second number indicates the amount per dose in mg siRNA (biologically active agent) per kg mouse. In general the multiple doses are administered at 24 hour intervals, and tissues for mRNA quantitation are harvested 24 hours after the last dose.

Factor VII = Factor VII activity assay, in vivo liver delivery of FVII siRNA LNP; design: species or system mouse; conditions: dose 1 mg/kg siRNA i.v., ~48 h; lipid/no neutral lipid/CHOL/GM-020 NOF 60/0/36/4, N/P 3
Method in brief: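 Female CD-1 mice (~25 g) given a single i.v. tail-vein dose of FVII siRNA in LNPs (cationic, stealth, neutral lipids), dosed as mg siRNA/kg. Plasma collected ~48 h post-injection; FVII activity read against a standard curve from pooled vehicle-control plasma.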

[2] = Particle size and PDI by dynamic light scattering (Malvern Zetasizer); type: physicochemical; design: Final size: unit not given here; conditions: for Final size: LNP formulation
Method in brief: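 Nanoparticles diluted in PBS to a count rate of about 200-400 kcts and measured by dynamic light scattering; size given as intensity-weighted average diameter, with polydispersity index from the same measurement.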

[3] = pKa of the lipid by TNS fluorescence; type: physicochemical; conditions: pKa
Method in brief: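 Lipid dissolved in ethanol (2 mM stock) and measured with TNS across eight buffers of differing pH, in water at standard temperature and pressure. Normalized fluorescence intensity plotted against pH and points joined by a smooth line to derive pKa, precise to about 0.2 units.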

[4] = system: PLK-1 mRNA in Hep3B tumors; test: Hep3B tumor study, PLK-1 mRNA KD in tumor tissue; type: in vivo, human; conditions: Hep3B tumor, mouse, i.v., LNP composition as in the source
[5] = system: PLK-1 mRNA in 786-0 tumors; test: 786-0 renal tumor study, PLK-1 mRNA KD in tumor tissue; type: in vivo, human; conditions: tumors collected 48 hrs after the single dose, read-out: PLKI % Inhibition
Description: as §1
786-0 tumors are established as described before by sc injection of 10×10^6 cells in 200 ul PBS. 4 weeks post implantation, the mice with the tumor size ranging from 200-250 mm^3 are randomized into treatment groups. siRNA formulated LNPs are then intravenously administered at either 5 or 10 mg/kg dose levels. 48 hrs after the single dose, tumors are collected for mRNA quantitation.
About 30-50 mg tumor tissue is homogenized in tissue lysis buffer in a Qiagen homogenizer followed by centrifugation to clarify lysates. […] PLK-1 mRNA is analyzed by quantitative PCR and normalized to human GAPDH. […]
The pKa in all tables refers to the pKa of the cationic lipid. […] In general the multiple doses are administered at 24 hour intervals, and tissues for mRNA quantitation are harvested 24 hours after the last dose.

[6] = LNP formulation with PLK1 siRNA, helper, neutral and stealth lipid, molar ratio and N/P as in the table, stealth lipid S004, molar ratio 45/43/10/2, N/P 4
[7] = lipid/no neutral lipid/CHOL/GM-020 NOF 60/0/36/4, N/P 3

CCCCC/C=C\C/C=C\CCCCCCCCOCC(CN1CCCCC1)OCCO[C@H]1CC[C@@]2(C)C(=CC[C@H]3[C@@H]4CC[C@H]([C@H](C)CCCC(C)C)[C@@]4(C)CC[C@@H]32)C1 (some centres unmarked) [E0076]
inhibition at 3 mg/kg [1]: 35%
FVII inhib % (Factor VII): 29.3%
Final size (nm) [2, 6]: 80.98 nm
Final size (nm) ([2]; LNP formulation with PLK1 siRNA, helper, neutral and stealth lipid, molar ratio and N/P as in the table, stealth lipid S004, molar ratio 50/48/2, N/P 4): 86.03 nm
Final size (nm) ([2]; LNP formulation with PLK1 siRNA, helper, neutral and stealth lipid, molar ratio and N/P as in the table, stealth lipid S011, molar ratio 60/38/2, N/P 4): 89.89 nm
Final size ([2]; Table 10): 86.03
Final size (nm) [2, 7]: 89.47 nm
PDI [2, 7]: 0.143
pKa [3]: 5.85
PLK1 inhibition % ([4]; 1 × 0.1 mg siRNA/kg): 0%
PLK1 inhibition % ([4]; 1 × 5 mg siRNA/kg): 85%

CCCCC/C=C\C/C=C\CCCCCCCCOCC(CN1CCCCC1)OCCOC(=O)CCC(=O)O[C@H]1CC[C@@]2(C)C(=CC[C@H]3[C@@H]4CC[C@H]([C@H](C)CCCC(C)C)[C@@]4(C)CC[C@@H]32)C1 (some centres unmarked) [E0104]
inhibition at 3 mg/kg [1]: 32%
inhibition at 5 mg/kg ([5]; 1 × 5 mg/kg iv): 55%
inhibition at 10 mg/kg ([5]; 1 × 10 mg/kg iv): 50%
Final size ([2]; Table 11, lipid molar ratio 45/43/10/2): 87.59
Final size ([2]; Table 11, lipid molar ratio 50/48/2): 95.05
pKa [3]: 6.1
PLK1 inhibition % ([4]; 1 × 1 mg siRNA/kg, stealth lipid S004, molar ratio 50/48/2, N/P 3): 48%
PLK1 inhibition % ([4]; 1 × 1 mg siRNA/kg, stealth lipid S004, molar ratio 50/48/2, N/P 4): 50%

CCCCCCCC/C=C\CCCCCCCCOCC(CN1CCOCC1)OCCOCCO[C@H]1CC[C@@]2(C)C(=CC[C@H]3[C@@H]4CC[C@H]([C@H](C)CCCC(C)C)[C@@]4(C)CC[C@@H]32)C1 (some centres unmarked) [E0085]
inhibition at 3 mg/kg [1]: 40%
Final size (nm) [2, 6]: 76.8 nm
Final size (nm) ([2]; LNP formulation with PLK1 siRNA, helper, neutral and stealth lipid, molar ratio and N/P as in the table, stealth lipid S004, molar ratio 50/38/10/2, N/P 4): 88.33 nm
Final size (nm) ([2]; LNP formulation with PLK1 siRNA, helper, neutral and stealth lipid, molar ratio and N/P as in the table, stealth lipid S004, molar ratio 50/43/5/2, N/P 4): 87.74 nm
Final size (nm) ([2]; LNP formulation with PLK1 siRNA, helper, neutral and stealth lipid, molar ratio and N/P as in the table, stealth lipid S004, molar ratio 50/48/0/2, N/P 4): 96.42 nm
Final size (nm) ([2]; LNP formulation with PLK1 siRNA, helper, neutral and stealth lipid, molar ratio and N/P as in the table, stealth lipid S004, molar ratio 60/38/2, N/P 4): 90.06 nm
Final size (nm) ([2]; LNP formulation with PLK1 siRNA, helper, neutral and stealth lipid, molar ratio and N/P as in the table, stealth lipid S011, molar ratio 40/48/10/2, N/P 4): 81.83 nm
Final size ([2]; Table 10): 76.8
pKa [3]: 5.32
PLK1 inhibition % ([4]; 1 × 0.1 mg siRNA/kg): 53%
PLK1 inhibition % ([4]; 1 × 2 mg siRNA/kg): 62%
PLK1 inhibition % ([4]; 1 × 5 mg siRNA/kg): 69%
PLK1 inhibition % ([4]; 1 × 10 mg siRNA/kg): 55%
